Experimental data: patent publication US8017633B2, “Roflumilast for the treatment of diabetes mellitus” (Nycomed GmbH, priority 2005, dated 2011)

System: C57BLKS db/db mice
Assay: 10 days study: fasting blood glucose and oral glucose tolerance in db/db mice
Assay type: in vivo, mouse
Conditions: for Blood glucose (15 min after glucose application) / Blood glucose (before glucose application): fasted 24 h; for Blood glucose (15 min after glucose application): 15 min after oral 1 g/kg glucose; for Blood glucose (before glucose application): 1 h after dose
Protocol: Female C57BLKS db/db mice obtained from M&B A/S (8680 Ry, Denmark) were used in the studies at 10 to 11 weeks of age. Mice were housed 10 per cage and allowed free access to water and standard laboratory diet for rodents (chow 3433, Provimi Kliba SA, 4303 Kaiseraugst, Switzerland).
Mice were allowed to acclimate to the local animal facilities for 1 week and retro-orbital blood samples were obtained 3 to 7 days prior to the start of the study.
Mice were treated with vehicle, Roflumilast or Roflumilast-N-Oxide, respectively once daily in the morning. Roflumilast or Roflumilast-N-Oxide was suspended in 4% methocel and applied via oral gavage using oral feeding & dosing needles (outer diameter: 1.5 mm, TSE GmbH, 61350 Bad Homburg, Germany). A volume of 10 ml/kg body weight was administered for each dose.
10 days studies: Mice were treated with vehicle, Roflumilast or Roflumilast-N-Oxide once daily in the morning. On day 9, mice were fasted for 24 hours by removing standard diet for laboratory animals 1 hour after drug application. On day 10, one hour after administration of vehicle, Roflumilast or Roflumilast-N-Oxide glucose tolerance was assessed by oral application of 1 g/kg/10 ml glucose. Blood was sampled before and 15 minutes after glucose application and levels of glucose (accu-chek, Roche Diagnostics GmbH, 68298 Mannheim, Germany) were measured.

[1] = Roflumilast 1 mg/kg oral once daily 10 days
[2] = Roflumilast 10 mg/kg oral once daily 10 days

In the case of O=C(Nc1c(Cl)cncc1Cl)c1ccc(OC(F)F)c(OCC2CC2)c1 [Roflumilast, 3-cyclopropylmethoxy-4-difluoromethoxy-N-(3,5-dichloropyrid-4-yl)benzamide], the “Blood glucose (15 min after glucose application)” value [1] was 507 mg/dL, the “Blood glucose (before glucose application)” value [1] was 347 mg/dL and the “Blood glucose (15 min after glucose application)” value [2] was 412 mg/dL. The “Blood glucose (before glucose application)” value [2] was 191 mg/dL, the “Effect on fasting blood glucose levels (summary in words)” value (db/db mice) was “reduce” and the “Effect on postprandial blood glucose levels (summary in words)” value (db/db mice) was “reduce”.
